Reference: patent publication US9708336B2, “Metallo-beta-lactamase inhibitors” (priority 2014, dated 2017)
Like-named read-outs stand apart in the source and are kept apart here.

Tests used:
IMP-1 = IMP-1 (Serratia marcescens, UniProt P52699); experiment: biochemical; type: biochemical; conditions: read-out: IMP-1 IC50
VIM-1 = VIM-1 (Pseudomonas aeruginosa (strain ATCC 15692 / DSM 22644 / CIP 104116 / JCM 14847 / LMG 12228 / 1C / PRS 101 / PAO1), UniProt A0A0F7KYQ8); experiment: Enzyme activity: determination of IC50, fluorescence assay with CCF2-FA substrate (VIM-1); type: biochemical
NDM-1 = NDM-1 (Klebsiella pneumoniae, UniProt C7C422); experiment: biochemical; type: biochemical; conditions: read-out: NDM-1 IC50
Chain of NDM-1 (C7C422 whole entry, looked up, species assumed): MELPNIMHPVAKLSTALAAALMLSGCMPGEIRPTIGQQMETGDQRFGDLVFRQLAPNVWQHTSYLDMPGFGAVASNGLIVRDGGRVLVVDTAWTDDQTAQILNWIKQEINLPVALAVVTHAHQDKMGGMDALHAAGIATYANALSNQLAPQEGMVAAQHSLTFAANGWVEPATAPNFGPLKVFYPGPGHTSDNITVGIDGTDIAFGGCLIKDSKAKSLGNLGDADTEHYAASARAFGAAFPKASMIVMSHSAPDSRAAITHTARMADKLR

[1] = system: Serratia marcescens expressing IMP-1 (CL5741); experiment: Antibiotic potentiation activity: synergistic concentration (MITC95) with imipenem, OD600 growth; type: cell-based; conditions: for Serratia marcescens expressing IMP-1 (CL5741) MITC95: concentration giving 95% inhibition of bacterial growth
How it was run: (§1)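 Growth after 22–24 h at 35 °C is measured spectrophotometrically for bacteria incubated with compound plus imipenem (4 μg/ml in-well, or 1 μg/ml). Cells come from overnight agar colonies resuspended in saline and diluted 1:100 in 1.1× CAMHB.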

[2] = system: Klebsiella pneumoniae expressing VIM-1 (IHMA599644); experiment: as above; type: cell-based; conditions: for Klebsiella pneumoniae expressing VIM-1 (IHMA 599644) MITC95: concentration giving 95% inhibition of bacterial growth
How it was run: as §1

[3] = system: Escherichia coli expressing NDM-1 (CLB30016); experiment: as above; type: cell-based; conditions: for Escherichia coli expressing NDM-1 (CLB 30016) MITC95: concentration giving 95% inhibition of bacterial growth
How it was run: as §1

[4] = IMP-1 enzyme, CCF2-FA fluorescence assay
[5] = VIM-1 enzyme, CCF2-FA fluorescence assay, read-out: VIM-1 IC50
[6] = NDM-1 enzyme, CCF2-FA fluorescence assay
[7] = Serratia marcescens expressing IMP-1 (CL5741), 95% growth inhibition
[8] = Klebsiella pneumoniae expressing VIM-1 (IHMA599644), 95% growth inhibition
[9] = Escherichia coli expressing NDM-1 (CLB30016), 95% growth inhibition
[10] = IMP-1 enzyme, CCF2-FA substrate
[11] = VIM-1 enzyme, CCF2-FA substrate, read-out: VIM-1 IC50
[12] = NDM-1 enzyme, CCF2-FA substrate
[13] = Serratia marcescens CL5741 (IMP-1), 95% growth inhibition
[14] = Klebsiella pneumoniae IHMA599644 (VIM-1), 95% growth inhibition
[15] = (CLB30016, NDM-1), 95% growth inhibition
[16] = fluorescence assay with CCF2-FA substrate
[17] = fluorescence assay with CCF2-FA substrate, read-out: VIM-1 IC50
[18] = VIM-1 IC50, VIM-1 enzyme, CCF2-FA substrate

Chain of IMP-1 (P52699 whole entry, looked up): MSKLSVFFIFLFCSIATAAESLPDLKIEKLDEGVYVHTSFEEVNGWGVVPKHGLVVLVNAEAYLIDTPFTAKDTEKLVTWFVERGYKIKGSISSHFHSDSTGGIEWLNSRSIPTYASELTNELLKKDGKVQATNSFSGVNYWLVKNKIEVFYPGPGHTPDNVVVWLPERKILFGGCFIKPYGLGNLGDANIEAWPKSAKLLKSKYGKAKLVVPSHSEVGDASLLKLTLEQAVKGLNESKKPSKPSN

CNC(=O)CNCc1ccc(-c2cccc(S(N)(=O)=O)c2-c2nnn[nH]2)cc1 [Example 371, N-methyl-N~2~-{[3′-sulfamoyl-2′-(1H-tetrazol-5-yl)biphenyl-4-yl]methyl}glycinamide]
IC50 (IMP-1; [4]): 78.3 nM
IC50 (VIM-1; [5]): 370 nM
IC50 (NDM-1; [6]): 8.5 nM
Serratia marcescens MITC95 [1, 7]: 2.344 µM
Klebsiella pneumoniae MITC95 [2, 8]: 100 µM
Escherichia coli MITC95 [3, 9]: 0.7813 µM

NCC(CN)c1ccc(-c2cccc(S(N)(=O)=O)c2-c2nnn[nH]2)cc1 [Example 509, 4′-(1,3-Diaminopropan-2-yl)-2-(1H-tetrazol-5-yl)-[1,1′-biphenyl]-3-sulfonamide]
IC50 (IMP-1; [10]): 929 nM
IC50 (VIM-1; [11]): 396 nM
IC50 (NDM-1; [12]): 57.4 nM
Serratia marcescens MITC95 [1, 13]: 12.5 µM
Klebsiella pneumoniae MITC95 [2, 14]: 50 µM
Escherichia coli MITC95 [3, 15]: 1.563 µM

CN1CC(NCc2ccc(-c3cccc(S(N)(=O)=O)c3-c3nnn[nH]3)cc2)C1 [Example 331, 4′-(((1-methylazetidin-3-yl)amino)methyl)-2-(1H-tetrazol-5-yl)-[1,1′-biphenyl]-3-sulfonamide]
IC50 (IMP-1; [4]): 392 nM
IC50 (VIM-1; [5]): 1190 nM
IC50 (NDM-1; [6]): 30.6 nM
Serratia marcescens MITC95 [1, 7]: 6.25 µM
Klebsiella pneumoniae MITC95 [2, 8]: 150 µM
Escherichia coli MITC95 [3, 9]: 1.172 µM

NS(=O)(=O)c1cccc(-c2ccc(CN3CNC(=O)C3)cc2)c1-c1nnn[nH]1 [Example 342, 4′-[(4-oxoimidazolidin-1-yl)methyl]-2-(1H-tetrazol-5-yl)biphenyl-3-sulfonamide]
IC50 (IMP-1; [4]): 46 nM
IC50 (VIM-1; [5]): 80.4 nM
IC50 (NDM-1; [6]): 4.64 nM
Serratia marcescens MITC95 [1, 7]: 0.7813 µM
Klebsiella pneumoniae MITC95 [2, 8]: 25 µM
Escherichia coli MITC95 [3, 9]: 3.125 µM

NC(=O)CN1CCC(Cc2ccc(-c3ccc(C4CNC4)cc3)c(-c3nn[nH]n3)c2S(N)(=O)=O)CC1 [Example 609, 2-[4-[[4-[4-(azetidin-3-yl)phenyl]-2-sulfamoyl-3-(2H-tetrazol-5-yl)phenyl]methyl]-1-piperidyl]acetamide]
IC50 (IMP-1; [10]): 83.9 nM
IC50 (VIM-1; [11]): 1.64 nM
IC50 (NDM-1; [12]): 21.3 nM
Serratia marcescens MITC95 [1, 13]: 12.5 µM
Klebsiella pneumoniae MITC95 [2, 14]: 3.125 µM
Escherichia coli MITC95 [3, 15]: 6.25 µM

NS(=O)(=O)c1cccc(-c2ccc(CNCc3nn[nH]n3)cc2)c1-c1nnn[nH]1 [Example 381, 2-(1H-tetrazol-5-yl)-4′-{[(2H-tetrazol-5-ylmethyl)amino]methyl}biphenyl-3-sulfonamide]
IC50 (IMP-1; [4]): 25.4 nM
IC50 (VIM-1; [5]): 357 nM
IC50 (NDM-1; [6]): 2.25 nM
Serratia marcescens MITC95 [1, 7]: 0.7813 µM
Klebsiella pneumoniae MITC95 [2, 8]: 50 µM
Escherichia coli MITC95 [3, 9]: 1.563 µM

NS(=O)(=O)c1cccc(-c2cnc3ccccn23)c1-c1nnn[nH]1 [Example 404, 3-imidazo[1,2-a]pyridin-3-yl-2-(1H-tetrazol-5-yl)benzenesulfonamide]
IC50 (IMP-1; [4]): 71.4 nM
IC50 (VIM-1; [5]): 5.41 nM
IC50 (NDM-1; [6]): 0.817 nM
Serratia marcescens MITC95 [1, 7]: 1.708 µM
Klebsiella pneumoniae MITC95 [2, 8]: 2.563 µM
Escherichia coli MITC95 [3, 9]: 0.0625 µM

Nc1ccnc2cc(-c3ccc(C(F)(F)F)c(S(N)(=O)=O)c3-c3nnn[nH]3)ccc12 [Example 478, 3-(4-amino-7-quinolyl)-2-(1-tetrazol-5-yl)-6-(trifluoromethyl)benzenesulfonamide]
IC50 (IMP-1; [4]): 88.1 nM
IC50 (VIM-1; [5]): 0.639 nM
IC50 (NDM-1; [6]): 24.6 nM
Serratia marcescens MITC95 [1, 7]: 2.344 µM
Klebsiella pneumoniae MITC95 [2, 8]: 0.7813 µM
Escherichia coli MITC95 [3, 9]: 0.7813 µM

NS(=O)(=O)c1nccc(N2CCCC(c3ccccn3)C2)c1-c1nnn[nH]1 (stereo not drawn) [Example 220, 4-(3-pyridin-2-ylpiperidin-1-yl)-3-(1H-tetrazol-5-yl)pyridine-2-sulfonamide]
IC50 (IMP-1; [16]): 2390 nM
IC50 (VIM-1; [17]): 234 nM
IC50 (NDM-1; [16]): 22.8 nM
Serratia marcescens expressing IMP-1 (CL5741) MITC95 [1]: 75 µM
Klebsiella pneumoniae expressing VIM-1 (IHMA 599644) MITC95 [2]: >200 µM
Escherichia coli expressing NDM-1 (CLB 30016) MITC95 [3]: 12.5 µM

NS(=O)(=O)c1cccc(C2=CCOCC2)c1-c1nnn[nH]1 [Example 140, 3-(3,6-dihydro-2H-pyran-4-yl)-2-(1H-tetrazol-5-yl)benzenesulfonamide]
IC50 (IMP-1; [16]): 160 nM
IC50 (VIM-1; [17]): 388 nM
IC50 (NDM-1; [16]): 7.68 nM
Serratia marcescens expressing IMP-1 (CL5741) MITC95 [1]: 6.25 µM
Klebsiella pneumoniae expressing VIM-1 (IHMA 599644) MITC95 [2]: 50 µM
Escherichia coli expressing NDM-1 (CLB 30016) MITC95 [3]: 0.5859 µM

NS(=O)(=O)c1c(C(F)(F)F)ccc(-c2cnc3ncccn23)c1-c1nnn[nH]1 [Example 712, 3-imidazo[1,2-a]pyrimidin-3-yl-2-(1H-tetrazol-5-yl)-6-(trifluoromethyl)benzenesulfon-amide]
IC50 (IMP-1; [10]): 126 nM
IC50 (VIM-1; [18]): 13.6 nM
IC50 (NDM-1; [12]): 58.7 nM
Serratia marcescens MITC95 [1, 13]: 100 µM
Klebsiella pneumoniae MITC95 [2, 14]: 50 µM
Escherichia coli MITC95 [3, 15]: 25 µM

NCc1nccc2cc(-c3cccc(S(N)(=O)=O)c3-c3nn[nH]n3)ccc12 [Example 280, 3-(1-(aminomethyl)isoquinolin-6-yl)-2-(2H-tetrazol-5-yl)benzenesulfonamide]
IC50 (IMP-1; [4]): 15.8 nM
IC50 (VIM-1; VIM-1 IC50, VIM-1 enzyme, CCF2-FA fluorescence assay): 20.4 nM
IC50 (NDM-1; [6]): 1.44 nM
Serratia marcescens MITC95 [1, 7]: 6.25 µM
Klebsiella pneumoniae MITC95 [2, 8]: 3.125 µM
Escherichia coli MITC95 [3, 9]: 0.5859 µM

NCCCCN1CC(c2ccc(-c3ccc(C(F)(F)F)c(S(N)(=O)=O)c3-c3nnn[nH]3)cc2)C1 [Example 817, 4′-[1-(4-aminobutyl)azetidin-3-yl]-2-(1H-tetrazol-5-yl)-4-(trifluoromethyl)biphenyl-3-sulfonamide]
IC50 (IMP-1; [16]): 15 nM
IC50 (VIM-1; [17]): 9.5 nM
IC50 (NDM-1; [16]): 4.46 nM
Serratia marcescens MITC95 ([1]; CL5741 (IMP-1), 95% inhibition of bacterial growth): 6.25 µM
Klebsiella pneumoniae MITC95 ([2]; IHMA599644 (VIM-1), 95% inhibition of bacterial growth): 12.5 µM
Escherichia coli MITC95 ([3]; CLB30016 (NDM-1), 95% inhibition of bacterial growth): 1.563 µM

NCCNc1nc2c(-c3cccc(S(N)(=O)=O)c3-c3nn[nH]n3)cccc2s1 [Example 639, 3-[2-(2-aminoethylamino)-1,3-benzothiazol-4-yl]-2-(2H-tetrazol-5-yl)benzenesulfonamide]
IC50 (IMP-1; [10]): 187 nM
IC50 (VIM-1; [11]): 10.5 nM
IC50 (NDM-1; [12]): 1.98 nM
Serratia marcescens MITC95 [1, 13]: 25 µM
Klebsiella pneumoniae MITC95 [2, 14]: 6.25 µM
Escherichia coli MITC95 [3, 15]: 1.563 µM

NC1CCC(N[C@H]2CC[C@H](c3ccc(C(F)(F)F)c(S(N)(=O)=O)c3-c3nnn[nH]3)CC2)CC1 (stereo partly drawn) [Example 701, 3-{4-[(4-aminocyclohexyl)amino]cyclohexyl}-2-(1H-tetrazol-5-yl)-6-(trifluoromethyl)benzene sulfonamide]
IC50 (IMP-1; [10]): 62.9 nM
IC50 (VIM-1; [18]): 12.7 nM
IC50 (NDM-1; [12]): 15.4 nM
Serratia marcescens MITC95 [1, 13]: 3.125 µM
Klebsiella pneumoniae MITC95 [2, 14]: 6.25 µM
Escherichia coli MITC95 [3, 15]: 0.7813 µM

NS(=O)(=O)c1c(C[C@H]2CC[C@@H](N)CC2)ccc(-c2ccc(C3CNC3)cc2)c1-c1nnn[nH]1 [Example 596, 4-(((1s,4s)-4-aminocyclohexyl)methyl)-4′-(azetidin-3-yl)-2-(1H-tetrazol-5-yl)-[1,1′-biphenyl]-3-sulfonamide]
IC50 (IMP-1; [10]): 10.6 nM
IC50 (VIM-1; [18]): 7.46 nM
IC50 (NDM-1; [12]): 4.38 nM
Serratia marcescens MITC95 [1, 13]: 1.563 µM
Klebsiella pneumoniae MITC95 [2, 14]: 1.563 µM
Escherichia coli MITC95 [3, 15]: 0.7813 µM

NCCCN1CCC(c2ccc(-c3cccc(S(N)(=O)=O)c3-c3nnn[nH]3)cc2)CC1 [Example 613, 3-[4-[1-(3-aminopropyl)-4-piperidyl]phenyl]-2-(1H-tetrazol-5-yl)benzenesulfonamide]
IC50 (IMP-1; [10]): 36.3 nM
IC50 (VIM-1; [11]): 253 nM
IC50 (NDM-1; [12]): 14.1 nM
Serratia marcescens MITC95 [1, 13]: 0.543 µM
Klebsiella pneumoniae MITC95 [2, 14]: 18.75 µM
Escherichia coli MITC95 [3, 15]: 0.25 µM

NS(=O)(=O)c1c(C(F)(F)F)ccc(-c2cccc(C3CCNC3)c2)c1-c1nnn[nH]1 (stereo not drawn) [Example 722, 3′-pyrrolidin-3-yl-2-(1H-tetrazol-5-yl)-4-(trifluoromethyl)biphenyl-3-sulfonamide]
IC50 (IMP-1; [10]): 21.7 nM
IC50 (VIM-1; [11]): 1.46 nM
IC50 (NDM-1; [12]): 20.8 nM
Serratia marcescens MITC95 [1, 13]: 25 µM
Klebsiella pneumoniae MITC95 [2, 14]: 6.25 µM
Escherichia coli MITC95 [3, 15]: 12.5 µM

NS(=O)(=O)c1cccc(-c2cnc(NCCO)nc2)c1-c1nnn[nH]1 [Example 125, 3-(2-((2-hydroxyethyl)amino)pyrimidin-5-yl)-2-(1H-tetrazol-5-yl)benzenesulfonamide]
IC50 (IMP-1; [16]): 326 nM
IC50 (VIM-1; VIM-1 IC50, fluorescence assay with CCF2-FA substrate): 172 nM
IC50 (NDM-1; [16]): 6.55 nM
Serratia marcescens expressing IMP-1 (CL5741) MITC95 [1]: 9.375 µM
Klebsiella pneumoniae expressing VIM-1 (IHMA 599644) MITC95 [2]: 25 µM
Escherichia coli expressing NDM-1 (CLB 30016) MITC95 [3]: 1.953 µM
